Measured values: the supplement of paper PMC10307832

Columns and labels:
Experiment in all cases: relative viability (nuclei count vs DMSO), 5 days (fraction); higher = more cells survive
[1] = compound: C1/C(=C\C2=CC=CS2)/C(=O)/C(=C/C3=CC=CS3)/C1
In short: (§1)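 Five library-drug doses spaced by √10 were pinned onto vehicle-anchored 1536-well plates of lung cancer cell lines that had been kept overnight at 37 °C. Cells went 5 days without medium change, then were fixed, permeabilised and Hoechst-stained together, imaged at 4× and counted by MetaXpress. Viability is the ratio of treated-well to vehicle-well nuclei, taken as a median over plates. Plates required control CV below 25% and at least one doubling.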

TPCA-1 = compound: C1=CC(=CC=C1C2=CC(=C(S2)NC(=O)N)C(=O)N)F [TPCA-1]
In short: as §1

Lestaurtinib = compound: C[C@]12O[C@H](C[C@]1(O)CO)n1c3ccccc3c3c4c(c5c6ccccc6n2c5c31)CNC4=O [Lestaurtinib]
In short: as §1

TPCA-1 + Crizotinib = compound: C1=CC(=CC=C1C2=CC(=C(S2)NC(=O)N)C(=O)N)F [TPCA-1] + C[C@@H](Oc1cc(-c2cnn(C3CCNCC3)c2)cnc1N)c1c(Cl)ccc(F)c1Cl [Crizotinib] (partner 1 µM)
In short: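 Lung cancer cell lines in 1536-well plates got either a single drug or a fixed anchor-drug dose together with five library-drug doses (not always all listed) in √10 steps, by pin tool, on the day after seeding. Nuclei were counted after 5 days, and relative viability is the treated-to-vehicle ratio of nuclei counts. Values are medians of duplicate plates.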

Row | Cell Line | relative viability ([1]; 0.2 µM) | relative viability ([1]; 0.6325 µM) | relative viability ([1]; 2 µM) | relative viability ([1]; 6.325 µM) | relative viability ([1]; 20 µM) | relative viability (TPCA-1; 0.04 µM) | relative viability (TPCA-1; 0.1265 µM) | relative viability (TPCA-1; 0.4 µM) | relative viability (TPCA-1; 1.265 µM) | relative viability (TPCA-1; 4 µM) | relative viability (Lestaurtinib; 0.005 µM) | relative viability (Lestaurtinib; 0.01581 µM) | relative viability (Lestaurtinib; 0.05 µM) | relative viability (Lestaurtinib; 0.1581 µM) | relative viability (Lestaurtinib; 0.5 µM) | relative viability (TPCA-1 + Crizotinib; first compound 0.04 µM) | relative viability (TPCA-1 + Crizotinib; first compound 0.1265 µM) | relative viability (TPCA-1 + Crizotinib; first compound 0.4 µM) | relative viability (TPCA-1 + Crizotinib; first compound 1.265 µM) | relative viability (TPCA-1 + Crizotinib; first compound 4 µM)
1 | NCI-H2228 | 1.01 | 0.989 | 1.15 | 0.748 | 1.1 | 1.09 | 0.785 | 1.16 | 0.984 | 0.666 | 1.25 | 1.11 | 0.698 | 0.483 | 0.258 | 0.589 | 0.489 | 0.487 | 0.364 | 0.277
2 | NCI-H2347 | 1.1 | 1.03 | 1.02 | 0.969 | 1.03 | 1.13 | 0.961 | 1.01 | 0.873 | 0.929 | 0.979 | 1.1 | 0.9 | 0.72 | 0.654 | 0.806 | 0.557 | 0.676 | 0.553 | 0.521
3 | NCI-H2405 | 1.01 | 0.988 | 1.14 | 0.959 | 1.02 | 1.08 | 0.944 | 1.09 | 0.816 | 0.842 | 0.97 | 1.08 | 0.974 | 0.822 | 0.532 | 0.908 | 0.773 | 0.797 | 0.547 | 0.905
4 | NCI-H3122 | 1.03 | 0.986 | 1.05 | 0.892 | 0.975 | 1.04 | 0.924 | 1 | 1.01 | 0.991 | 1.06 | 1.11 | 0.981 | 1.11 | 0.615 | 0.281 | 0.268 | 0.278 | 0.291 | 0.223
5 | PC-3 [JPC-3] | 1.04 | 1.06 | 1.03 | 0.949 | 1.08 | 1.04 | 1 | 1.04 | 1.04 | 0.951 | 1.07 | 1.08 | 0.957 | 0.77 | 0.624 | 0.982 | 0.943 | 1.07 | 0.962 | 0.819
6 | PC-14 | 1.03 | 1.06 | 1 | 0.899 | 0.995 | 1.03 | 0.946 | 1.06 | 1.04 | 0.838 | 1.06 | 1.11 | 0.848 | 0.741 | 0.344 | 0.818 | 0.864 | 0.891 | 0.832 | 0.615
7 | RERF-LC-KJ | 0.984 | 1.04 | 1.02 | 0.878 | 0.927 | 1.02 | 0.895 | 0.982 | 0.93 | 0.826 | 1.03 | 1.09 | 0.847 | 0.827 | 0.558 | 0.875 | 0.815 | 0.835 | 0.792 | 0.758
8 | SK-LU-1 | 1.12 | 1.09 | 1.07 | 0.91 | 1.1 | 1.13 | 0.9 | 1.07 | 0.836 | 0.632 | 1.07 | 0.883 | 0.531 | 0.563 | 0.263 | 0.862 | 0.667 | 1.07 | 0.675 | 0.556
9 | SK-MES-1 | 1.05 | 1.03 | 1.02 | 0.906 | 0.972 | 1.06 | 0.864 | 0.976 | 0.881 | 0.604 | 1.02 | 0.931 | 0.57 | 0.394 | 0.259 | 1 | 0.907 | 0.923 | 0.948 | 0.589
10 | SW 1573 | 1.05 | 0.996 | 1.08 | 0.891 | 0.99 | 1.18 | 0.91 | 0.985 | 0.947 | 0.858 | 1.05 | 0.989 | 0.782 | 0.571 | 0.401 | 0.881 | 0.754 | 0.728 | 0.673 | 0.622
